{"source": "patent US8058309B2", "about": "“Protein kinase modulators and therapeutic uses thereof” (Novotyr Therapeutics Ltd., priority 2006, dated 2011)", "assay": "Body weight of treated nude mice", "type": "in vivo", "conditions": "IP, 1/day, 50 mg/kg, over 4 weeks", "description": "Human hormone-refractory prostate cancer PC3 cells (ATCC, 1.5×10^6 cells per mouse) were injected subcutaneously into the right leg of Nude:Hsd mice (purchased from Harlan). Ten days later, when palpable tumors had developed, mice were divided into 3 groups with similar average tumor size. […] The mice treated with compound 7 group were daily injected with compound 7 dissolved in the below described vehicle, and the vehicle-treated group (veh) was daily injected by the vehicle alone. Vehicle included 4.4% DMSO, 1.2% Ethanol and 50% PEG400 in DDW; Groups were composed of 3 mice per group. Dose administered IP was 50 mg/Kg (4 ml/Kg) once a day for one month. The length (l) and the width (w) of the tumors were measured every day and the volumes of the tumors were calculated as follows: v=1w^2/2. Graphs present average volumes of the tumors versus time in days. The procedure was followed for the other described in-vivo studies with the following modifications: […]"}
{"smiles": "N#C/C(=C\\c1cc(O)c(O)c(Br)c1)C(=S)NCc1cc(O)c(O)c(O)c1", "note": "[Compound 7]", "values": [{"measurement": "Effect on body weight of the mice", "value": "no significant effect"}]}
